Reference: ChEMBL document CHEMBL1126033, “C-terminal modifications of nonpeptide renin inhibitors: improved oral bioavailability via modification of physicochemical properties” (J Med Chem, 1992)

Columns and labels:
[1] = Partition coefficient (logD6.5); conditions: octanol/water, pH 6.5
[2] = Partition coefficient (logD7.4); conditions: octanol/water, pH 7.4
[3] = biological target: T1, Renin (Homo sapiens, UniProt P00797); type: cell-free, Plasma
T1 sequence (P00797 whole entry): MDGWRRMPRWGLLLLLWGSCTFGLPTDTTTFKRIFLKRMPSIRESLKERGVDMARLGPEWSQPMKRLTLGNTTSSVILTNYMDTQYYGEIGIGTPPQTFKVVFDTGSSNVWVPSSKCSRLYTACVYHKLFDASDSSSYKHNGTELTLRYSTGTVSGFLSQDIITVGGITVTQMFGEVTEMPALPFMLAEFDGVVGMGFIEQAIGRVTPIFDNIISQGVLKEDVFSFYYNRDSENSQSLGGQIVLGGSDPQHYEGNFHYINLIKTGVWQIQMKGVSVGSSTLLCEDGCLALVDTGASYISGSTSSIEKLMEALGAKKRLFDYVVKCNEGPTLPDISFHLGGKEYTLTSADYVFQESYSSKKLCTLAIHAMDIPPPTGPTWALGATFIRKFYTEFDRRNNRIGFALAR

[4] = biological target: T1, Renin; assay: In vitro activity against human renin (pH 6.0)

Row | SMILES | logD [1] | logD [2] | IC50 [3] [nM] | IC50 [4] [nM]
1 | CCCCC(=O)N[C@@H](C[C@H](O)[C@H](CC1CCCCC1)NC(=O)[C@H](CCCC)O[C@@H](Cc1ccccc1)C(=O)N1CCC(OCOC)CC1)C(C)C | – | – | 53 | –
2 | CCCC[C@H](O[C@@H](Cc1ccccc1)C(=O)N1CCC(OCOC)CC1)C(=O)N[C@@H](CC1CCCCC1)[C@@H](O)C[C@H](N)C(C)C | – | – | – | 110
3 | CCCC[C@H](O[C@@H](Cc1ccccc1)C(=O)N1CCC(OCOC)CC1)C(=O)N[C@@H](CC1CCCCC1)[C@@H](O)C[C@H](NS(C)(=O)=O)C(C)C | – | – | 61 | 4.3
4 | CCCC[C@H](O[C@@H](Cc1ccccc1)C(=O)N1CCC(OCOC)CC1)C(=O)N[C@@H](CC1CCCCC1)[C@@H](O)C[C@H](C(=O)NCCN(C)C)C(C)C | 3.3 | 4.3 | 5.7 | 2.9
5 | CCCC[C@H](O[C@@H](Cc1ccccc1)C(=O)N1CCC(OCOC)CC1)C(=O)N[C@@H](CC1CCCCC1)[C@@H](O)C[C@H](C(=O)N(C)CCCN(C)C)C(C)C | 2.5 | 3.7 | 270 | 57
6 | CCCCC(=O)N[C@@H](C[C@H](O)[C@H](CC1CCCCC1)NC(=O)[C@H](Cc1c[nH]cn1)NC(=O)[C@H](Cc1ccccc1)NC(=O)OC(C)(C)C)C(C)C | – | – | 200 | 6
7 | CCCC[C@H](O[C@@H](Cc1ccccc1)C(=O)N1CCC(OCOC)CC1)C(=O)N[C@@H](CC1CCCCC1)[C@@H](O)C[C@H](C(=O)NCCC[N+](C)(C)[O-])C(C)C | – | – | 5 | –
8 | CC(C)[C@H](C[C@H](O)[C@H](CC1CCCCC1)NC(=O)[C@H](Cc1c[nH]cn1)NC(=O)[C@H](Cc1ccccc1)NC(=O)OC(C)(C)C)NS(=O)(=O)C(C)C | – | – | – | 67
9 | CCCC[C@H](O[C@@H](Cc1ccccc1)C(=O)N1CCC(OCOC)CC1)C(=O)N[C@@H](CC1CCCCC1)[C@@H](O)C[C@H](NC(=O)OCCC(C)C)C(C)C | – | – | 56 | 5
10 | CC(C)[C@H](C[C@H](O)[C@H](CC1CCCCC1)NC(=O)[C@H](Cc1cnc[nH]1)NC(=O)[C@H](Cc1ccccc1)NC(=O)OC(C)(C)C)NC(=O)OCCCN(C)C | – | – | 17 | 2.8
11 | CC(C)[C@H](C[C@H](O)[C@H](CC1CCCCC1)NC(=O)[C@H](Cc1c[nH]cn1)NC(=O)[C@H](Cc1ccccc1)NC(=O)OC(C)(C)C)NC(=O)OCc1ccccc1 | – | – | – | 11
12 | CC(C)[C@H](C[C@H](O)[C@H](CC1CCCCC1)NC(=O)[C@H](Cc1c[nH]cn1)NC(=O)[C@H](Cc1ccccc1)NC(=O)OC(C)(C)C)NC(=O)OCCN1CCCC1 | – | – | 28 | 2.7
13 | CC(C)[C@H](C[C@H](O)[C@H](CC1CCCCC1)NC(=O)[C@H](Cc1c[nH]cn1)NC(=O)[C@H](Cc1ccccc1)NC(=O)OC(C)(C)C)NS(C)(=O)=O | – | – | – | 28
14 | CCCC[C@H](O[C@@H](Cc1ccccc1)C(=O)N1CCC(OCOC)CC1)C(=O)N[C@@H](CC1CCCCC1)[C@@H](O)C[C@H](C(=O)N1CCCN(C)CC1)C(C)C | 3.7 | – | 79 | 17
15 | CCCC[C@H](O[C@@H](Cc1ccccc1)C(=O)N1CCC(OCOC)CC1)C(=O)N[C@@H](CC1CCCCC1)[C@@H](O)C[C@H](C(=O)N(C)CCN(C)C)C(C)C | 3.3 | > 5 | 290 | 30

Now from value to compound:

Row | logD [1] | logD [2] | IC50 [3] [nM] | IC50 [4] [nM] | SMILES
16 | 2.9 | 3.8 | 12 | 2.4 | CCCC[C@H](O[C@@H](Cc1ccccc1)C(=O)N1CCC(OCOC)CC1)C(=O)N[C@@H](CC1CCCCC1)[C@@H](O)C[C@H](NC(=O)OCCCN(C)C)C(C)C
17 | – | – | 4.7 | 1.3 | CC(C)[C@H](C[C@H](O)[C@H](CC1CCCCC1)NC(=O)[C@H](Cc1cnc[nH]1)NC(=O)[C@H](Cc1ccccc1)NC(=O)OC(C)(C)C)NC(=O)OCCN1CCOCC1
18 | – | – | 7.6 | 2 | CCCC[C@H](N[C@@H](Cc1ccccc1)C(=O)N1CCC(OCOC)CC1)C(=O)N[C@@H](CC1CCCCC1)[C@@H](O)C[C@H](C(=O)NCCCn1ccnc1)C(C)C
19 | – | – | 14 | 1.5 | CCCC[C@H](O[C@@H](Cc1ccccc1)C(=O)N1CCC(OCOC)CC1)C(=O)N[C@@H](CC1CCCCC1)[C@@H](O)C[C@H](NC(=O)OCCC)C(C)C
20 | 2.2 | 2.8 | 6.1 | 2.1 | CCCC[C@H](N[C@@H](Cc1ccccc1)C(=O)N1CCC(OCOC)CC1)C(=O)N[C@@H](CC1CCCCC1)[C@@H](O)C[C@H](C(=O)NCCCN(C)C)C(C)C
21 | > 5 | > 5 | 5.1 | 1 | CCCC[C@H](O[C@@H](Cc1ccccc1)C(=O)N1CCC(OCOC)CC1)C(=O)N[C@@H](CC1CCCCC1)[C@@H](O)C[C@H](C(=O)NCCc1ccccn1)C(C)C
22 | – | – | 83 | 2.7 | CCCNC(=O)N[C@@H](C[C@H](O)[C@H](CC1CCCCC1)NC(=O)[C@H](Cc1c[nH]cn1)NC(=O)[C@H](Cc1ccccc1)NC(=O)OC(C)(C)C)C(C)C
23 | 3.9 | 4.3 | 9.5 | 1.8 | CCCC[C@H](N[C@@H](Cc1ccccc1)C(=O)N1CCC(OCOC)CC1)C(=O)N[C@@H](CC1CCCCC1)[C@@H](O)C[C@H](NC(=O)OCCN1CCOCC1)C(C)C
24 | – | – | 13 | 2.5 | CCCC[C@H](O[C@@H](Cc1ccccc1)C(=O)N1CCC(OCOC)CC1)C(=O)N[C@@H](CC1CCCCC1)[C@@H](O)C[C@H](NC(=O)OCCN1CCCC1)C(C)C
25 | – | – | 3.5 | 1.3 | CCCC[C@H](O[C@@H](Cc1ccccc1)C(=O)N1CCC(OCOC)CC1)C(=O)N[C@@H](CC1CCCCC1)[C@@H](O)C[C@H](C(=O)NCCC[N+]1([O-])CCOCC1)C(C)C
26 | – | – | 17 | 1.3 | CC(C)[C@H](C[C@H](O)[C@H](CC1CCCCC1)NC(=O)[C@H](Cc1c[nH]cn1)NC(=O)[C@H](Cc1ccccc1)NC(=O)OC(C)(C)C)NC(=O)OCCc1ccccn1
27 | – | – | 16 | 2.4 | CCCC[C@H](O[C@@H](Cc1ccccc1)C(=O)N1CCC(OCOC)CC1)C(=O)N[C@@H](CC1CCCCC1)[C@@H](O)C[C@H](NC(=O)NCCC)C(C)C
28 | 2.7 | 3.4 | 40 | 0.9 | CCCC[C@H](O[C@@H](Cc1ccccc1)C(=O)N1CCC(OCOC)CC1)C(=O)N[C@@H](CC1CCCCC1)[C@@H](O)C[C@H](NC(=O)OCCc1ccccn1)C(C)C
29 | – | – | 83 | 2.2 | CCCC[C@H](O[C@@H](Cc1ccccc1)C(=O)N1CCC(OCOC)CC1)C(=O)N[C@@H](CC1CCCCC1)[C@@H](O)C[C@H](NC(=O)OCc1ccccc1)C(C)C
30 | – | – | 12 | 2.3 | CC(C)[C@H](C[C@H](O)[C@H](CC1CCCCC1)NC(=O)[C@H](Cc1c[nH]cn1)NC(=O)[C@H](Cc1ccccc1)NC(=O)OC(C)(C)C)NC(=O)OCCN(C)C
31 | – | – | 16 | 1.7 | CCCOC(=O)N[C@@H](C[C@H](O)[C@H](CC1CCCCC1)NC(=O)[C@H](Cc1cnc[nH]1)NC(=O)[C@H](Cc1ccccc1)NC(=O)OC(C)(C)C)C(C)C
